{"source": "patent US10611795B2", "about": "“Methods for viral inactivation using eco-friendly detergents” (priority 2013, dated 2020)", "key": {"[1]": {"test": "EHS evaluation: basic physical and toxicological characteristics from manufacturer and government literature", "conditions": "not solid due to the algal and fish data"}, "[2]": {"conditions": "cited from earlier work; for EC50: 3 weeks, Selenastrum capricornutum; for acute EC50: 30 min Photobacterium phosphoreum (marine light-emitting bacteria); for Biodegradability classification in Closed Bottle and Modified OECD Screening Tests: both Closed Bottle and Modified OECD Screening Tests"}, "[3]": {"test_system": "Xenotropic Murine Leukemia Virus (XMuLV)", "assay_type": "cell-based", "conditions": "for xMuLV inactivation LRV, Time 0.5 / xMuLV inactivation LRV, Time 1 / xMuLV inactivation LRV, Time 3 / xMuLV inactivation LRV, Time 6 / xMuLV inactivation, in words / xMuLV inactivation LRV, Time 2: 20° C.; for xMuLV inactivation LRV, Time 0.5: 0.5 h; for xMuLV inactivation LRV, Time 1: 1 h; for xMuLV inactivation LRV, Time 3: 3 h; for xMuLV inactivation LRV, Time 6: 6 h; for xMuLV inactivation, in words: detergent or solvent alone; for xMuLV inactivation LRV, Time 2: 2 h; for XMuLV LRV: rProtein1 CaptoAdhere Pool, Room Temperature"}, "[4]": {"test": "Detergent mixing turbidity analysis (average absorbance 340-360 nm)", "assay_type": "physicochemical", "conditions": "MAb1 HCCF"}, "[5]": {"test": "Turbidity after detergent exposure", "assay_type": "physicochemical", "conditions": "MAb3 HCCF and MAb3 MSS pool, three hours"}, "[6]": {"test_system": "bovine viral diarrhea virus (BVDV)", "test": "BVDV inactivation, plaque assay with BT indicator cells (LRV)", "assay_type": "cell-based", "conditions": "rProtein 2 HCCF, 0.3% Detergent, 20° C., Run 1, Run 2"}, "[7]": {"conditions": "various (12 species) marine microalgae, 10-12 d"}, "[8]": {"conditions": "~2 d, Sphaerechinus granularis, sea urchin embryo-larval test, marine"}, "[9]": {"conditions": "MAb1 HCCF, listed as 1% Polysorbate 20"}, "[10]": {"conditions": "MAb1 HCCF, listed as 2% Polysorbate 20"}, "[11]": {"conditions": "MAb1 HCCF, listed as 0.03M caprylate pH 4.5"}, "[12]": {"conditions": "MAb1 HCCF, listed as 0.03M caprylate pH 7.6"}, "[13]": {"conditions": "MAb1 HCCF, listed as 0.1M caprylate pH 5.0"}, "[14]": {"conditions": "MAb1 HCCF, listed as 0.1M caprylate pH 7.6"}, "[15]": {"conditions": "MAb1 Protein A pool, listed as 1% Polysorbate 80"}, "[16]": {"conditions": "MAb1 Protein A pool, listed as 2% Polysorbate 80"}}, "note": "Several values for one entry are separate records, joined by “and”; a condition that tells them apart may be missing. Equal entries are not always repeated. Where two headings read alike, the source gives them in different places.", "data": [{"compound": "Polysorbate 20", "values": [{"measurement": "preliminary acute-based freshwater PNEC", "setting": "[1]", "value": "freshwater PNEC 0.1 mg/l,"}, {"measurement": "acute LC50", "setting": "[2]; 1 d Artemia sp. (marine)", "value": "acute LC50 1447 mg/l 1 d"}, {"measurement": "LC50", "setting": "[2]; 1 d Poecilia reticulata, freshwater", "value": "LC50 350 mg/l 1 d Poecilia"}, {"measurement": "Biodegradability according to Roche's inherent biodegradability test (OECD 302)", "setting": "[2]", "value": "Poor biodegradability"}, {"measurement": "EC50", "setting": "[2]; freshwater", "value": "EC50 ≤100 mg/l 3 weeks"}, {"measurement": "acute NOEC", "setting": "[2]; highest tested concentration, limit test, 48 h Daphnia magna, OECD202", "value": "acute NOEC 10 mg/l"}, {"measurement": "chronic NOEC", "setting": "[2]; highest tested concentration, limit test, 21 d Daphnia magna, OECD repro", "value": "chronic NOEC 10 mg/l"}, {"measurement": "chronic NOEC", "setting": "[2]; [7]", "value": "chronic NOEC 10 mg/l"}, {"measurement": "chronic NOEC", "setting": "[2]; [8]", "value": "chronic NOEC 20 mg/l ~2 d,"}, {"measurement": "xMuLV inactivation LRV, Time 0.5", "setting": "[3]; [9]", "value": 1.0}, {"measurement": "xMuLV inactivation LRV, Time 0.5", "setting": "[3]; [10]", "value": 0.6}, {"measurement": "xMuLV inactivation LRV, Time 1", "setting": "[3]; [9]", "value": 1.4}, {"measurement": "xMuLV inactivation LRV, Time 1", "setting": "[3]; [10]", "value": 0.7}, {"measurement": "xMuLV inactivation LRV, Time 3", "setting": "[3]; [9]", "value": 2.3}, {"measurement": "xMuLV inactivation LRV, Time 3", "setting": "[3]; [10]", "value": 2.2}, {"measurement": "xMuLV inactivation LRV, Time 6", "setting": "[3]; [9]", "value": 4.5}, {"measurement": "xMuLV inactivation LRV, Time 6", "setting": "[3]; [10]", "value": 5.6}, {"measurement": "xMuLV inactivation, in words", "setting": "[3]; MAb1 HCCF", "value": "less effective"}]}, {"compound": "CCCCCCCC(=O)O", "note": "[caprylate, caprylic acid]", "values": [{"measurement": "turbidity during mixing, after filtration and overnight incubation (FIGS. 2, 3), in words", "setting": "[4]", "value": "Turbidity increased with the addition and mixing"}, {"measurement": "turbidity, in words", "setting": "[5]", "value": "Significant turbidity"}, {"measurement": "xMuLV inactivation LRV, Time 2", "setting": "[3]; [11]", "value": "≥5.0"}, {"measurement": "xMuLV inactivation LRV, Time 2", "setting": "[3]; [12]", "value": 0.21}, {"measurement": "xMuLV inactivation LRV, Time 2", "setting": "[3]; [13]", "value": "≥5.1"}, {"measurement": "xMuLV inactivation LRV, Time 2", "setting": "[3]; [14]", "value": "≥6.0"}, {"measurement": "xMuLV inactivation LRV, Time 3", "setting": "[3]; [11]", "value": "≥5.0"}, {"measurement": "xMuLV inactivation LRV, Time 3", "setting": "[3]; [12]", "value": 0.30}, {"measurement": "xMuLV inactivation LRV, Time 3", "setting": "[3]; [13]", "value": "≥5.1"}, {"measurement": "xMuLV inactivation LRV, Time 3", "setting": "[3]; [14]", "value": "≥6.0"}]}, {"compound": "CCCCCCCCCCCCOC1OC(CO)C(O)C(O)C1O", "note": "(stereo not drawn) [Alkylglucosides C12]", "values": [{"measurement": "acute EC50", "setting": "[2]", "value": "C12 = 8.8 mg/l), 30 min"}, {"measurement": "Biodegradability classification in Closed Bottle and Modified OECD Screening Tests", "setting": "[2]", "value": "C10 and C12) are readily"}]}, {"compound": "CCCCCCCCOC1OC(CO)C(O)C(O)C1O", "note": "(stereo not drawn) [Alkylglucosides C8]", "values": [{"measurement": "acute EC50", "setting": "[2]", "value": 11.7, "unit": "µg/mL"}, {"measurement": "Biodegradability classification in Closed Bottle and Modified OECD Screening Tests", "setting": "[2]", "value": "C10 and C12) are readily"}]}, {"compound": "CCCCCCCCCCOC1OC(CO)C(O)C(O)C1O", "note": "(stereo not drawn) [Alkylglucosides C10]", "values": [{"measurement": "acute EC50", "setting": "[2]", "value": 7.9, "unit": "µg/mL"}, {"measurement": "Biodegradability classification in Closed Bottle and Modified OECD Screening Tests", "setting": "[2]", "value": "C10 and C12) are readily"}]}, {"compound": "CCCCCCOC1OC(CO)C(O)C(O)C1O", "note": "(stereo not drawn) [Alkylglucosides C6]", "values": [{"measurement": "acute EC50", "setting": "[2]", "value": "EC50: C6 = 490 mg/l; C8 ="}, {"measurement": "Biodegradability classification in Closed Bottle and Modified OECD Screening Tests", "setting": "[2]", "value": "C10 and C12) are readily"}]}, {"compound": "Triton X-100", "values": [{"measurement": "BVDV log reduction value", "setting": "[6]; 30 min", "value": "5.4 and 5.5"}, {"measurement": "BVDV log reduction value", "setting": "[6]; 60 min", "value": ">5.4 and >5.5"}]}, {"compound": "CCCCCCCCCCCC(=O)NCCC[N+](C)(C)CC(=O)[O-]", "note": "[lauramidopropyl betaine]", "values": [{"measurement": "Biodegradability classification", "setting": "[2]; as stated in the Biodegradability column, no single test named", "value": "readily biodegradable"}]}, {"compound": "Polysorbate 80", "values": [{"measurement": "?NOEC", "setting": "[2]; 3 weeks Selenastrum capricornutum, printed with question marks", "value": 100, "unit": "mg/l? 3 weeks"}, {"measurement": "chronic NOEC", "setting": "[2]; 4 d Gloeocapsa (Cyanobacteria)", "value": "chronic NOEC 100 mg/l 4 d"}, {"measurement": "chronic NOEC", "setting": "[2]; 96 h Tetrahymena pyriformis", "value": "chronic NOEC 250 mg/l 96 h"}, {"measurement": "algal NOEC", "setting": "[2]; Chlorella vulgaris 96 h, freshwater", "value": "algal NOEC 2 mg/l"}, {"measurement": "Biodegradability according to Roche's inherent biodegradability test (OECD 302)", "setting": "[2]", "value": "Poor biodegradability"}, {"measurement": "algal EC10 (~NOEC)", "setting": "[2]; Scenedesmus quadricauda 96 h, freshwater", "value": "algal EC10 (~NOEC) 6.99 mg/l"}, {"measurement": "EC50", "setting": "[2]; freshwater", "value": "EC50 ≥100 mg/l, ?NOEC"}, {"measurement": "chronic NOEC", "setting": "[2]; [7]", "value": "chronic NOEC 10 mg/l"}, {"measurement": "chronic NOEC", "setting": "[2]; [8]", "value": "chronic NOEC 20 mg/l ~2 d,"}, {"measurement": "xMuLV inactivation LRV, Time 1", "setting": "[3]; MAb1 HCCF", "value": 3.3}, {"measurement": "xMuLV inactivation LRV, Time 3", "setting": "[3]; MAb1 HCCF", "value": 5.7}, {"measurement": "xMuLV inactivation, in words", "setting": "[3]; MAb1 HCCF", "value": "less effective"}, {"measurement": "xMuLV inactivation LRV, Time 0.5", "setting": "[3]; [15]", "value": 0.4}, {"measurement": "xMuLV inactivation LRV, Time 0.5", "setting": "[3]; [16]", "value": 0.7}, {"measurement": "xMuLV inactivation LRV, Time 1", "setting": "[3]; [15]", "value": 0.9}, {"measurement": "xMuLV inactivation LRV, Time 1", "setting": "[3]; [16]", "value": 0.7}, {"measurement": "xMuLV inactivation LRV, Time 2", "setting": "[3]; MAb1 Protein A pool", "value": 1.2}, {"measurement": "xMuLV inactivation LRV, Time 3", "setting": "[3]; [15]", "value": 1.1}, {"measurement": "xMuLV inactivation LRV, Time 3", "setting": "[3]; [16]", "value": 1.0}, {"measurement": "XMuLV LRV", "setting": "[3]; 5 min, Run 1, Run 2", "value": ".45"}, {"measurement": "XMuLV LRV", "setting": "[3]; 10 min, Run 1, Run 2", "value": ".57"}, {"measurement": "XMuLV LRV", "setting": "[3]; 15 min", "value": ".82"}, {"measurement": "XMuLV LRV", "setting": "[3]; 30 min", "value": 2.1}, {"measurement": "time to effective XMuLV inactivation", "setting": "[3]; rProtein1 CaptoAdhere pool, room temperature", "value": 1, "unit": "h"}]}]}
